For assay [1], the target named is T1, c-Src kinase (human) (Homo sapiens, UniProt P12931).
T1 construct: purchased Upstate Biotechnology, Lake Placid, N.Y
The assay is described as follows: c-Src Kinase Assay. The format is biochemical. Conditions: for IC50: read-out: c-Src IC50 (in parentheses); for inhibition at 2 µM / c-Src % Inhibition: test concentration of 2 μM, multiple values are separate assay results; for c-Src % Inhibition: 2 µM. The gist of the method: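 Inhibition was read as 33P incorporation, counted on P30 filtermats, after a 40 min, 30° C reaction. Human c-Src acted on 100 μM Cdc2 peptide with 5 μM ATP (final), pH 7.0 MOPS/MgCl2. Values are percent inhibition at 2 μM compound, or IC50 where determined.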

Assay [2] deals with T2, HER-2 (Homo sapiens, UniProt P04626).
T2 construct: His6 with thrombin site (N); purchased Proqinase (Freiburg, Germany)
T2 sequence (P04626 679-1255): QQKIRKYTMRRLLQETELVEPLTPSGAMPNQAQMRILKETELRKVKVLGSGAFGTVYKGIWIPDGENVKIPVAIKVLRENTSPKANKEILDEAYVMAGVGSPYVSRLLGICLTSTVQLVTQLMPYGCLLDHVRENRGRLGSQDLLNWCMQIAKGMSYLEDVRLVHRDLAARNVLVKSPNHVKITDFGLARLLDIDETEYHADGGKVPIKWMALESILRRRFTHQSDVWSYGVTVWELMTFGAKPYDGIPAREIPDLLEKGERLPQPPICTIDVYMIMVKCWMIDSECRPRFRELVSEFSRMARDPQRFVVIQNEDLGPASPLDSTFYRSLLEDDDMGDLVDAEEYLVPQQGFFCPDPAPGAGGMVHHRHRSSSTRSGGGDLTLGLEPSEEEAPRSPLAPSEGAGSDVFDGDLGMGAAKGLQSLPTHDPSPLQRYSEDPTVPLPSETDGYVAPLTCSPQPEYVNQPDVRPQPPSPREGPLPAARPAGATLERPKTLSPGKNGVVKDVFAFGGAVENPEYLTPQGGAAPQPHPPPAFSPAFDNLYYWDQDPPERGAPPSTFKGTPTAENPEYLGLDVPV
As to the kind of experiment: HER-2 Kinase Assay. The format is biochemical. Conditions: for inhibition at 1 µM: test concentration of 1 μM; for IC50: value in parentheses. The method in brief: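 Read-out was scintillation counting of 33P incorporated into biotinylated polyGluTyr captured on streptavidin plates. Reactions ran 1 h at 30 °C with GST-fused HER-2 residues 679–1255, 1 μM ATP, Mn2+ and Mg2+ at pH 7.5; data given as percent inhibition at 1 μM, with IC50 where determined.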

The subject of assay [3] is HeLa cervical adenocarcinoma. The assay is described as follows: Cell Proliferation Inhibition Assay, Hela (C14 method). Type of assay: cell-based. The conditions noted are these: Homo sapiens, Table 7. From the text:
(§1) Cell Proliferation Inhibition Assay
(§2) The ability of a test compound to inhibit unregulated cell proliferation may be determined by measuring incorporation of ^14C-labelled thymidine into newly synthesized DNA within cell lines derived from carcinomas originating from several tissues. Accordingly, the effect of a test compound on proliferation of cells with a variety of phenotypes may be determined.
(§3) Carcinoma cell lines used include the HeLa cervical adenocarcinoma from the American Type Culture Collection (ATCC Cat. #CCL2), A375 malignant melanoma (ATCC Cat. #CRL-1619), HCT-116 colon carcinoma (ATCC Cat. #CCL-247), SKBR3 breast carcinoma (ATCC Cat. #HTB-30) and BT474 breast carcinoma (ATCC Cat. #HTB-20).
(§4) The carcinoma cells were trypsinized and counted. The cells (3000-8000 count) were added to each well of a 96-well CytoStar tissue culture treated scintillating microplate (Amersham #RPNQ0160) in complete medium (100 μL) and the plate was then incubated in complete medium for 24 hrs at 37° C. in an inert atmosphere containing 5% CO2.
(§5) Test compound (1 μL) in 100% DMSO was added to the plate test-wells with DMSO only added to control-wells. The plate was incubated in complete medium for a second 24 hr period at 37° C. in an atmosphere containing 5% CO2.
(§6) An aliquot of a solution of Methyl ^14C-thymidine (56 mC/mmol) (NEN #NEC568 or AMersham #CFA532) and complete medium (20 uL to provide 0.2 μCl/well) was then added to each well and the plate was incubated for a third 24 hr period at 37° C. in an atmosphere containing 5% CO2.
(§7) The plate contents were then discarded, the plate washed twice with PBS (200 μL) and then PBS (200 μL) was added to each well. The plate was sealed and the degree of methyl ^14C-thymidine incorporation was quantified on a Packard Top Count.
(§8) Cell proliferation of the Hela cell line was measured using the ATP-Lite method as described in the ATP Lite Kit (Perkin-Elmer Kit Number 6106941) or the C^14 method as described above. Cell proliferation of the other cell lines was measured using the C^14 method.

The test system of assay [4] is A375 malignant melanoma. The assay is described as follows: Cell Proliferation Inhibition Assay, A375 (14C-thymidine). Type of assay: cell-based. Conditions: Homo sapiens, A-375.
Text: as §1, §2, §3, §4, §5, §6, §7, §8

Where “and” joins values, the source holds several entries; their conditions need not be identical. Identical values can stand only once.

T1 sequence (P12931 whole entry): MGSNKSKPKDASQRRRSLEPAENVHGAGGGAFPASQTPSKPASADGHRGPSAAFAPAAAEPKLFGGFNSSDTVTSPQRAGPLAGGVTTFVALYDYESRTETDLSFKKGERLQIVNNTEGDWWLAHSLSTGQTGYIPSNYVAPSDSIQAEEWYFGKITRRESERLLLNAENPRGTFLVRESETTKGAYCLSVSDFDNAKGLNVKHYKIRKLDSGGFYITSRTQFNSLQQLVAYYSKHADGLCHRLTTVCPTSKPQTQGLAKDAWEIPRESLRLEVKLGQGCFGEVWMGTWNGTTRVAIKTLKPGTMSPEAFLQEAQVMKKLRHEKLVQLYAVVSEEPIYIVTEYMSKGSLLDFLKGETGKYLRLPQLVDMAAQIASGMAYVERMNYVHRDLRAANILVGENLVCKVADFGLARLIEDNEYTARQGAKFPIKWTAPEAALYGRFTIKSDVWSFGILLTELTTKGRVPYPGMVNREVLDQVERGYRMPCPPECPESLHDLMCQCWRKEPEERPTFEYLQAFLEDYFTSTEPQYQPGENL

By IC50 is commonly meant the concentration needed to halve the response being measured. As a reminder, the inhibition is the drop in the measured response relative to a control, in per cent. For `COc1cc(NC(=O)c2sc3ncnc4c3c2NC(=O)N4c2ccc(Oc3ccccc3)cc2)ccc1OCCN1CCCCC1` [Cpd 100, 4-oxo-5-(4-phenoxy-phenyl)-4,5-dihydro-3H-1-thia-3,5,6,8-tetraaza-acenaphthylene-2-carboxylic acid [3-methoxy-4-(2-piperidin-1-yl-ethoxy)-phenyl]-amide], the IC50 in assay [1] was above 200000 nM. Further, in assay [2], the inhibition at 1 µM is 95% and the IC50 worked out at 111 nM.
For `O=C(Nc1ccc(CN2CCCCC2)cc1)c1sc2ncnc3c2c1NC(=O)N3c1ccc(Oc2ccccc2)cc1` [Cpd 96, 4-oxo-5-(4-phenoxy-phenyl)-4,5-dihydro-3H-1-thia-3,5,6,8-tetraaza-acenaphthylene-2-carboxylic acid (4-piperidin-1-ylmethyl-phenyl)-amide], the IC50 in assay [1] was above 200000 nM. Moreover, in assay [2], the inhibition at 1 µM came out at 98% and the IC50 worked out at 41 nM.
As for `O=C(Nc1ccc(CN2CCOCC2)cc1)c1sc2ncnc3c2c1NC(=O)N3c1ccc(Oc2ccccc2)cc1` [Cpd 97, 4-oxo-5-(4-phenoxy-phenyl)-4,5-dihydro-3H-1-thia-3,5,6,8-tetraaza-acenaphthylene-2-carboxylic acid (4-morpholin-4-ylmethyl-phenyl)-amide], the results for the IC50 in assay [1] and in assay [2] were around 2000 nM and 27 nM, respectively. The inhibition at 1 µM in assay [2] turned out to be 97%.
Consider `COC(=O)c1sc2ncnc3c2c1NC(=O)N3c1c(Cl)ccc2c1OCO2` [Cpd 54, 5-(5-chloro-benzo[1,3]dioxol-4-yl)-4-oxo-4,5-dihydro-3H-1-thia-3,5,6,8-tetraaza-acenaphthylene-2-carboxylic acid methyl ester], for which, in assay [1], the IC50 came out at 1490 nM and the inhibition at 2 µM is 42%. For the same compound, the inhibition at 1 µM in assay [2] is 3%.
For `O=C(Nc1ccc(CN2CCOCC2)cc1)c1sc2ncnc3c2c1NC(=O)N3c1ccc(Oc2ccccc2)c(F)c1` [Cpd 113, 5-(3-fluoro-4-phenoxy-phenyl)-4-oxo-4,5-dihydro-3H-1-thia-3,5,6,8-tetraaza-acenaphthylene-2-carboxylic acid (4-morpholin-4-ylmethyl-phenyl)-amide], in assay [1], the inhibition at 2 µM was found to be 68% and the “c-Src % Inhibition” value turned out to be 54%. In addition, in assay [2], the inhibition at 1 µM is 83% and the IC50 was 89 nM.
`CN1CCN(Cc2ccc(NC(=O)c3sc4ncnc5c4c3NC(=O)N5c3ccc(OCc4ccccn4)c(Cl)c3)cc2)CC1` [Cpd 90, 5-[3-chloro-4-(pyridin-2-ylmethoxy)-phenyl]-4-oxo-4,5-dihydro-3H-1-thia-3,5,6,8-tetraaza-acenaphthylene-2-carboxylic acid [4-(4-methyl-piperazin-1-ylmethyl)-phenyl]-amide]: in assay [1], the inhibition at 2 µM was 8% and the “c-Src % Inhibition” value turned out to be 4%. In assay [2], the inhibition at 1 µM was 82% and the IC50 is 503 nM.
`O=C(Nc1ccc(CN2CCOCC2)cc1)c1sc2ncnc3c2c1NC(=O)N3c1ccc(N2CCOCC2)cc1` [Cpd 123, 5-(4-morpholin-4-yl-phenyl)-4-oxo-4,5-dihydro-3H-1-thia-3,5,6,8-tetraaza-acenaphthylene-2-carboxylic acid (4-morpholin-4-ylmethyl-phenyl)-amide]: the half-maximal inhibitory concentration (IC50) is 545 nM in assay [1] and above 100000 nM in assay [2]. For the same compound, the inhibition at 2 µM in assay [1] turned out to be 77%.
Consider `COc1ccc(Cl)c(N2C(=O)Nc3c(C(=O)Nc4ccc(OC)c(OC)c4)sc4ncnc2c34)c1` [Cpd 49, 5-(2-chloro-5-methoxy-phenyl)-4-oxo-4,5-dihydro-3H-1-thia-3,5,6,8-tetraaza-acenaphthylene-2-carboxylic acid (3,4-dimethoxy-phenyl)-amide], for which, in assay [1], the IC50 is above 200000 nM and the inhibition at 2 µM was determined as 23%. In addition, the inhibition at 1 µM in assay [2] was -5%.
Regarding `O=C(Nc1ccc(CN2CCOCC2)cc1)c1sc2ncnc3c2c1NC(=O)N3c1c(Cl)ccc2c1OCO2` [Cpd 62, 5-(5-chloro-benzo[1,3]dioxol-4-yl)-4-oxo-4,5-dihydro-3H-1-thia-3,5,6,8-tetraaza-acenaphthylene-2-carboxylic acid (4-morpholin-4-ylmethyl-phenyl)-amide], the IC50 stood at 75 nM in assay [1] and 528 nM in assay [2]. Also, the inhibition at 2 µM in assay [1] worked out at 83%.
For `CCOC(=O)c1sc2ncnc3c2c1NC(=O)N3c1ccc(Oc2ccc(F)cc2)cc1` [Cpd 101, 5-[4-(4-fluoro-phenoxy)-phenyl]-4-oxo-4,5-dihydro-3H-1-thia-3,5,6,8-tetraaza-acenaphthylene-2-carboxylic acid ethyl ester], the IC50 in assay [2] was above 100000 nM; in assay [3], at least 100000 nM; in assay [4] it was 100000 nM.
Turning to `O=C(Nc1ccc(CN2CCOCC2)cc1)c1sc2ncnc3c2c1NC(=O)N3c1c(Cl)cccc1Cl` [Cpd 104, 5-(2,6-dichloro-phenyl)-4-oxo-4,5-dihydro-3H-1-thia-3,5,6,8-tetraaza-acenaphthylene-2-carboxylic acid (4-morpholin-4-ylmethyl-phenyl)-amide], in assay [1], the IC50 is 1840 nM, the inhibition at 2 µM stood at 55% and the “c-Src % Inhibition” value is on record as 60%. In addition, the IC50 in assay [2] came out at 7070 nM.
Take `COc1ccc(Cl)c(N2C(=O)Nc3c(C(=O)Nc4ccc(CN5CCOCC5)cc4)sc4ncnc2c34)c1` [Cpd 51, 5-(2-chloro-5-methoxy-phenyl)-4-oxo-4,5-dihydro-3H-1-thia-3,5,6,8-tetraaza-acenaphthylene-2-carboxylic acid (4-morpholin-4-ylmethyl-phenyl)-amide]: in assay [1], the 50% inhibitory concentration (IC50) turned out to be 6580 nM and the inhibition at 2 µM is 33%. Further, the inhibition at 1 µM in assay [2] was 28%.
For `O=C(Nc1ccc(CN2CCCCC2)cc1)c1sc2ncnc3c2c1NC(=O)N3c1ccc(OCc2ccccn2)c(Cl)c1` [Cpd 89, 5-[3-chloro-4-(pyridin-2-ylmethoxy)-phenyl]-4-oxo-4,5-dihydro-3H-1-thia-3,5,6,8-tetraaza-acenaphthylene-2-carboxylic acid (4-piperidin-1-ylmethyl-phenyl)-amide], the inhibition at 2 µM in assay [1] amounted to 44%. In assay [2], the inhibition at 1 µM was 93% and the IC50 was 69 nM.
`COc1cc(N2C(=O)Nc3c(C(=O)Nc4ccc(CN5CCCC5)cc4)sc4ncnc2c34)c(Cl)cc1Cl` [Cpd 43, 5-(2,4-dichloro-5-methoxy-phenyl)-4-oxo-4,5-dihydro-3H-1-thia-3,5,6,8-tetraaza-acenaphthylene-2-carboxylic acid (4-pyrrolidin-1-ylmethyl-phenyl)-amide]: in assay [1], the IC50 amounted to 4150 nM and the inhibition at 2 µM came to 53%. Further, the inhibition at 1 µM in assay [2] came out at 21%.
Taken in the same sequence, the figures for `COc1cc(N2C(=O)Nc3c(C(=O)Nc4ccc(CN5CCN(C)CC5)cc4)sc4ncnc2c34)c(Cl)cc1Cl` [Cpd 60] were 7940 nM, 38% and 22%.
On to `CN1CCN(Cc2ccc(NC(=O)c3sc4ncnc5c4c3NC(=O)N5c3ccc(Oc4ccccc4)cc3)cc2)CC1` [Cpd 98, 4-oxo-5-(4-phenoxy-phenyl)-4,5-dihydro-3H-1-thia-3,5,6,8-tetraaza-acenaphthylene-2-carboxylic acid [4-(4-methyl-piperazin-1-ylmethyl)-phenyl]-amide], for which, in assay [1], the IC50 is 592 nM; the “c-Src % Inhibition” value is 63% and 41%. Moreover, in assay [2], the inhibition at 1 µM was 95% and the IC50 is 88 nM.
With `COc1ccc(Cl)c(N2C(=O)Nc3c(C(=O)Nc4ccc(OCCN5CCOCC5)c(OC)c4)sc4ncnc2c34)c1` [Cpd 50, 5-(2-chloro-5-methoxy-phenyl)-4-oxo-4,5-dihydro-3H-1-thia-3,5,6,8-tetraaza-acenaphthylene-2-carboxylic acid [3-methoxy-4-(2-morpholin-4-yl-ethoxy)-phenyl]-amide], in assay [1], the IC50 was 8090 nM and the inhibition at 2 µM was found to be 20%. Also, the inhibition at 1 µM in assay [2] was -5%.

(Values after patent US7579356B2, “Thia-tetraazaacenaphthylene kinase inhibitors” (Janssen Pharmaceutica NV, priority 2005, dated 2009).)
